The values below come from ChEMBL document CHEMBL5150034, “Design, synthesis, molecular docking and pharmacological evaluation of novel triazine-based triazole derivatives as potential anticonvulsant agents” (Bioorg Med Chem Lett, 2022).

Structures are written as SMILES.

The subject of data set [1] is Mus musculus. Kind of data set: Anticonvulsant activity in MES induced mouse model of seizure assessed as protection against seizure at 1 mmol/Kg, ip relative to control. Type of data set: functional.
The test system of data set [2] is Mus musculus. Nature of the data set: Anticonvulsant activity in PTZ induced mouse model of seizure assessed as protection against seizure at 1 mmol/Kg, ip relative to control. Type of data set: functional.
Data set [3] is described as follows: Protective index, ratio of TD50 for toxicity in ip dosed mouse to ED50 for anticonvulsant activity in ip dosed mouse model of seizure. Type of data set: organism-based. The note with it: in vivo, read-out: Ratio TD50/ED50.
Data set [4] can be described thus: Toxicity in ip dosed mouse. Type of data set: organism-based. The note with it: in vivo.
The subject of data set [5] is Mus musculus. Kind of data set: Anticonvulsant activity in ip dosed mouse model of seizure. Type of data set: functional.
Data set [6] is described as follows: Therapeutic index, ratio of LD50 for toxicity in ip dosed mouse to ED50 for anticonvulsant activity in ip dosed mouse model of seizure. Type of data set: organism-based. The settings on record: in vivo, read-out: TI.

For the molecule `CC(=O)c1nnn(-c2nc(Cl)nc(Cl)n2)c1NCc1ccc(C)cc1`, the Activity in the data set with Mus musculus [1] is 25%; in the data set on Mus musculus [2] it was 39%.
For orientation: TD50 means the dose at which the toxic effect under study appears in half of the subjects. Lower therefore signals greater toxicity. The ED50 is the dose at which the effect has come halfway, by size or by number of responders. Lower therefore signals an effect at a small dose. Regarding `CC(=O)c1nnn(-c2nc(Cl)nc(Cl)n2)c1NCc1ccc(Cl)cc1`, the selectivity ratio in data set [3] was 2.38; in data set [6] it was 2.76. For the same molecule, the TD50 in data set [4] turned out to be 0.93 mmol/kg. Moreover, in the data set on Mus musculus [5], it took a dose of 0.39 mmol/kg to reach the 50% effect level (ED50). Also, the Activity in the data set with Mus musculus [1] and with Mus musculus [2] was 100% in each case.
On to `CC(=O)c1nnn(-c2nc(Cl)nc(Cl)n2)c1NCc1ccc(F)cc1`, for which the selectivity ratio worked out at 2.61 in data set [3] and 3.35 in data set [6]. Also, the TD50 in data set [4] came out at 0.89 mmol/kg. In the data set with Mus musculus [5], this molecule returned an ED50 of 0.34 mmol/kg. The Activity with Mus musculus [1] and in the data set with Mus musculus [2] was 100% each time.
In the case of `CC(=O)c1nnn(-c2nc(Cl)nc(Cl)n2)c1NCc1ccc(C(F)(F)F)cc1`, the selectivity ratio in data set [3] turned out to be 3.76; in data set [6], 5.61. This molecule also returned a TD50 in data set [4] of 0.79 mmol/kg. In the data set with Mus musculus [5], this molecule showed an ED50 of 0.21 mmol/kg. Also, the Activity with Mus musculus [1] and in the data set with Mus musculus [2] was 100% throughout.
Regarding `CC(=O)c1nnn(-c2nc(Cl)nc(Cl)n2)c1NCc1cc(F)c(F)c(F)c1`, the Activity was 67% in the data set with Mus musculus [1] and 75% with Mus musculus [2].
With `CC(=O)c1nnn(-c2nc(Cl)nc(Cl)n2)c1NCc1ccccc1`, the Activity in the data set with Mus musculus [1] is on record as 33%; in the data set on Mus musculus [2], 48%.
With `CC(=O)c1nnn(-c2nc(Cl)nc(Cl)n2)c1NCc1cc(F)cc(F)c1`, the selectivity ratio in data set [3] was 2.1; in data set [6], 2.21. The molecule also came in with a TD50 in data set [4] of 0.97 mmol/kg. Moreover, the 50% effect level in the data set on Mus musculus [5] (ED50) was put at a dose of 0.46 mmol/kg. Also, the Activity in the data set on Mus musculus [1] worked out at 83%; in the data set with Mus musculus [2] it was 100%.
As for `CCCC(CCC)C(=O)O` [VALPROIC ACID], the selectivity ratio in data set [3] came out at 2.08; in data set [6], 2.59. In data set [4], the TD50 came out at 9.63 mmol/kg. Also, in the data set with Mus musculus [5], the 50% effective dose (ED50) was 4.61 mmol/kg. Further, the Activity in the data set on Mus musculus [1] and in the data set with Mus musculus [2] was 100% throughout.
With `Cc1ccccc1-n1c(C)nc2ccccc2c1=O` [METHAQUALONE], the selectivity ratio in data set [3] was determined as 1.12; in data set [6] it was 1.4. In data set [4], this molecule gave a TD50 of 1.64 mmol/kg. In the data set with Mus musculus [5], this molecule displayed an ED50 of 1.46 mmol/kg. Moreover, the Activity in the data set with Mus musculus [1] and with Mus musculus [2] was 100% each time.
Regarding `COc1ccc(CNc2c(C(C)=O)nnn2-c2nc(Cl)nc(Cl)n2)cc1`, the Activity worked out at 10% with Mus musculus [1] and 25% in the data set on Mus musculus [2].
The corresponding values for `CC(=O)c1nnn(-c2nc(Cl)nc(Cl)n2)c1NCc1ccc(O)cc1` are 18% and 33%.
`CC(=O)c1nnn(-c2nc(Cl)nc(Cl)n2)c1NCc1ccc([N+](=O)[O-])cc1`: the results for the selectivity ratio in data set [3] and in data set [6] were 3.07 and 4.14, respectively. Besides, the TD50 in data set [4] worked out at 0.83 mmol/kg. Moreover, in the data set with Mus musculus [5], the ED50 was determined as 0.27 mmol/kg. In addition, the Activity in the data set with Mus musculus [1] and with Mus musculus [2] was 100% throughout.
